| Compound | melting point [°C] |
| --- | --- |
| N#CC(C#N)=C1Sc2nc3cc([N+](=O)[O-])c([N+](=O)[O-])cc3nc2S1 | > 300 |
| O=C(O)[C@@H]1CN[C@H](C(=O)O)C1 | 219 to 220 |
| COC(=O)NCC(=CF)c1ccccc1 | 73 to 74 |
| CCC1(CC)Cc2cc(OCC(=O)O)c(Cl)c(Cl)c2C1=O | 111 |
| Cc1oc2c(-n3c(=O)cc(C(F)(F)F)n(C)c3=O)c(F)cc(Cl)c2c1C=O | 148 to 150 |
| CC1(c2ccc(Br)cc2)C(=O)Nc2cc(Cl)cc(Cl)c2C1=O (centres undefined) | 237 to 238 |
| O=C(O)c1cnn(-c2nc(-c3cc(C(F)(F)F)cc(C(F)(F)F)c3)cs2)c1C(F)(F)F | 204 to 205 |
| O=C(COc1ccc(Cl)cc1)N1CC2COCC2C1 (centres undefined) | 110 |
| Cc1csc2ccc3c(c4c(n3CCCN(C)C)CCNC4)c12 | 92 |
| CCCCCOC(=O)c1cc(O)c2c(n1)c(C)cc1c(O)cc(C(=O)OCCCCC)nc12 | 137 to 139 |
| CC=Cc1cc(OC)cc2cc(-c3ccc(OC)cc3)oc12 | 116 to 118 |
| COC(=O)CC1(O)CC2CCC1(CS(=O)(=O)N1CCC3(C=Cc4ccccc43)CC1)C2(C)C (centres undefined) | 81 to 83 |
| O=C(O)c1cc2c(c([N+](=O)[O-])c1)OC(C(Cl)(Cl)Cl)OC2C(Cl)(Cl)Cl (centres undefined) | 211 to 212 |
| CCSc1nc(O)nn1CC | 65 to 68 |
| O=C(O)CCNC(=O)C1CN(c2ccc(-c3noc(=O)[nH]3)cc2)C(=O)O1 (centres undefined) | 221 to 223 |
| CC(C)(C)C(=O)Nc1ccc(F)c(Oc2ccc(C3CC(=O)NC(=O)C3)cc2)c1F | 172 |
| CC(=O)NCC1CC(c2ccc(N3CCOCC3)c(F)c2)=NO1 (single isomer, unassigned; (-)) | 179 to 180 |
| CCCCNC(=O)ON1C(C)(C)CC(OC(=O)c2cccc(C(=O)OC3CC(C)(C)N(OC(=O)NCCCC)C(C)(C)C3)c2)CC1(C)C | 176 to 177 |
| CCNc1ncnc2c1ncn2Cc1c(F)cccc1Cl | 175 to 176 |
| Cc1nc2c(cc1C(=O)NC(=N)N)C(O)CCCC2 (centres undefined) | 225 to 226 |
| Cc1n[nH]c2cc(F)c(C3C(C#N)=C(C(F)F)NC(C(F)F)=C3C#N)cc12 | 282 |
| C=CCN1CCC=C(c2ccc(C(C)(C)CCCCCC)cc2O)C1 | 109 to 110 |
| COC=C(C#N)C(=O)c1cc(F)c(Cl)cc1Cl | 159 |
| COc1ccc(CCN(C)CCCC2(c3ccc(OC)c(OC)c3)S(=O)(=O)CCCS2(=O)=O)cc1OC | 144 |
| COc1ccc(-c2cc(=Nc3c(C)cc(C)cc3C)n(C)c3nncn23)cc1OC | 125 to 130 |

The remaining lines, values ahead:

| melting point [°C] | Compound |
| --- | --- |
| 107 to 108 | CCOC(=O)c1ccc(NC(=O)CCCCCc2ccc(Cl)cc2)cc1 |
| 120 to 122 | CCOC(=O)c1sc2cc(OCc3cccnc3)ccc2c1S(=O)(=O)c1ccccc1 |
| 115 to 116 | O=S(=O)(c1ccccc1)c1ccc(-c2ccccc2)s1 |
| 136 to 138 | O=C(NCc1ccc(F)cc1)c1cccnc1Oc1ccc(F)cc1 |
| > 250 | N#Cc1cnc2sc(-c3cccc(C=O)c3)cc2c1Cl |
| 262 to 270 | c1cnn(Cc2ccc3c(c2)Cc2c(-c4ccsc4)n[nH]c2-3)c1 |
| 190 to 192 | Cn1c(-c2ccccc2Cl)c2ccsc2nc1=O |
| 207 to 208 | CCOCc1nc2c(N)nc3cc(OCc4cccc(C)c4)ccc3c2n1CC(C)C |
| 250 | CN(C)Cc1sc(C(c2ccc(Cl)cc2)c2c(Cl)cc(-n3ncc(=O)[nH]c3=O)cc2Cl)nc1-c1ccccc1F (centres undefined) |
| 98 to 100 | O=C(C1CCN(Cc2ccccc2)CC1)N1CCc2ccccc2C1 |
| 51 to 52 | COCOCc1nc(-c2ccccc2)oc1C=O |
| 113 to 115 | CCOC(=O)c1sc2cc(COc3cccnc3)ccc2c1S(=O)c1cccc(OC)c1 (centres undefined) |
| 218 to 220 | N#CCc1ccccc1-c1ccc(C(=O)O)cc1 |
| 188 to 190 | CCc1cc2cc(O)ccc2c(Oc2ccc(/C=C/C(=O)O)cc2)c1-c1ccccc1 |
